Laboratory results reported in ChEMBL document CHEMBL1159254, “Isolation and structure of two novel muscarinic receptor antagonists” (J Nat Prod, 1995).

Tests used:
[1] = target: T1, Muscarinic acetylcholine receptor M1 (Homo sapiens, UniProt P11229); assay: Displacement of QNB from muscarinic M1 receptor
T1 sequence (P11229 whole entry): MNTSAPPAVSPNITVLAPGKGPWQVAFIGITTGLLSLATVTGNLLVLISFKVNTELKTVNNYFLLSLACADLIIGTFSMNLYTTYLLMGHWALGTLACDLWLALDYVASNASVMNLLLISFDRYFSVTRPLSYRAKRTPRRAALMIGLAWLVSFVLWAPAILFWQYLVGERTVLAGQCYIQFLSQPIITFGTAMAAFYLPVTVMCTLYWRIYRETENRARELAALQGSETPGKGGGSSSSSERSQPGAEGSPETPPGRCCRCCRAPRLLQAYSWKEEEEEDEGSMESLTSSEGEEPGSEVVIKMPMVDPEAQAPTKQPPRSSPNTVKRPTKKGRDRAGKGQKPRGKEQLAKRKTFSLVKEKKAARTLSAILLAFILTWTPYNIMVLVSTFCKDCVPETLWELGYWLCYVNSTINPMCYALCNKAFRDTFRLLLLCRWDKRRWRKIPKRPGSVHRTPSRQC

[2] = target: T2, Muscarinic acetylcholine receptor M2 (Homo sapiens, UniProt P08172); assay: Displacement of QNB from muscarinic M2 receptor
T2 sequence (P08172 whole entry): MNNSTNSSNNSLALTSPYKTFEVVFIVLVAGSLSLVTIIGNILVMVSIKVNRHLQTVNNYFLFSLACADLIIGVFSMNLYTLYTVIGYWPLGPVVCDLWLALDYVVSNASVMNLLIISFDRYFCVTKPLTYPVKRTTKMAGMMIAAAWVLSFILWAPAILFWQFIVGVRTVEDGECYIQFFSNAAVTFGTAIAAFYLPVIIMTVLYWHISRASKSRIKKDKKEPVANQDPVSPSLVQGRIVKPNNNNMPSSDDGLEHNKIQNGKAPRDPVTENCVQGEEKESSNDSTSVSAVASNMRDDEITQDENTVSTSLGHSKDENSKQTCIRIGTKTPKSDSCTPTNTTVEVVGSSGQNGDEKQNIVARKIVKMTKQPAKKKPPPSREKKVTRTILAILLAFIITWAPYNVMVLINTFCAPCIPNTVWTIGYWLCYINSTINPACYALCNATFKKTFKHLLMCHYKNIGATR

[3] = target: T3, Muscarinic acetylcholine receptor M4 (Homo sapiens, UniProt P08173); assay: Displacement of QNB from muscarinic M4 receptor
T3 sequence (P08173 whole entry): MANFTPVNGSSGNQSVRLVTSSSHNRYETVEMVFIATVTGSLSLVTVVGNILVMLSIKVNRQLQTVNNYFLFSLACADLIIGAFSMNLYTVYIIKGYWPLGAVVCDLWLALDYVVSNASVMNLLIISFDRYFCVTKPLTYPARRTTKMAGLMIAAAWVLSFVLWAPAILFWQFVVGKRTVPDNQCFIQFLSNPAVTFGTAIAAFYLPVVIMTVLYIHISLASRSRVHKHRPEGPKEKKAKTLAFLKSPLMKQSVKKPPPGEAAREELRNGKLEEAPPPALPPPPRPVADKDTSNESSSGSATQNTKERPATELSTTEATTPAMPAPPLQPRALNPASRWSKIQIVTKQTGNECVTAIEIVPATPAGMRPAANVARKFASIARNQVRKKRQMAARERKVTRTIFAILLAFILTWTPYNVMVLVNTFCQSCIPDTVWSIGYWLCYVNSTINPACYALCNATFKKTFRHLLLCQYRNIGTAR

IC50 [1] | IC50 [2] | IC50 [3] | SMILES
7 nM | 6 nM | 10 nM | NC(N)=NCCCCCCCCC(=O)C(N)CCCN=C(N)N (stereo unspecified)
1410 nM | 960 nM | 910 nM | CC(=O)NC(CCCNC(=N)N)C(=O)CCCCCCCCNC(=N)N (stereo unspecified)
